According to patent US20070015823A1, “Ambruticin VS compounds” (priority 2004, published 2007):

Tests used:
[1] = tested on: A. flavus ATCC 204304; experiment: Broth microdilution antifungal susceptibility, NCCLS M38-A; assay type: cell-based, Aspergillus flavus; conditions: minimal concentration inhibiting >95% growth; average of at least two assays (except I-l and I-x)
[2] = tested on: A. fumigatus ATCC 204305; experiment: as above; assay type: cell-based, Aspergillus fumigatus; conditions: minimal concentration inhibiting >95% growth; average of at least two assays (except I-l and I-x)

Compound | MIC0 A. flavus ATCC 204304 [1] [µg/mL] | MIC0 A. fumigatus ATCC 204305 [2] [µg/mL]
20,21-dihydro ambruticin VS4 [IV-e] | 1 | 2.5
CC[C@H]1O[C@@H](/C(C)=C/[C@H](C)/C=C/[C@H]2[C@@H](C)[C@@H]2/C=C/[C@@H]2O[C@H](CC(=O)O)C[C@H](N(C)C)[C@H]2O)CC=C1C [Ambruticin VS-3, (5S,6R)-5-(dimethylamino)-6-hydroxypolyangioic acid, reference compound] | 0.64 | 0.44
CC[C@H]1O[C@@H](/C(C)=C/[C@H](C)/C=C/[C@H]2[C@@H](C)[C@@H]2/C=C/[C@@H]2O[C@H](CC(=O)O)C[C@H](N)[C@H]2O)CC=C1C [Ambruticin VS-5, (5S,6R)-5-amino-6-hydroxypolyangioic acid, reference compound] | 1.09 | 1.64
CC[C@H]1O[C@@H](/C(C)=C/[C@H](C)/C=C/[C@H]2[C@@H](C)[C@@H]2/C=C/[C@@H]2O[C@H](CC(=O)O)C[C@H](NC(=O)OC)[C@H]2O)CC=C1C [I-bb, (5S,6R)-5-methoxycarbonylamino-6-hydroxypolyangioic acid] | 32 | 16
C=CCNC(=O)O[C@H]1[C@H](/C=C/[C@H]2[C@H](C)[C@@H]2/C=C/[C@@H](C)/C=C(\C)[C@H]2CC=C(C)[C@@H](CC)O2)O[C@H](CC(=O)O)C[C@@H]1N(C)C(=O)NCC=C [I-cc, (5S,6R)-5-(3-allyl-1-methylureido)-6-(allylcarbamoyl)polyangioic acid] | >32 | >32
CC[C@H]1O[C@@H](/C(C)=C/[C@H](C)/C=C/[C@H]2[C@@H](C)[C@@H]2/C=C/[C@@H]2O[C@H](CC(=O)O)C[C@H](N(C)C(=O)NCc3ccccc3)[C@H]2OC(=O)NCc2ccccc2)CC=C1C [I-dd, (5S,6R)-5-(3-benzyl-1-methylureido)-6-(benzylcarbamoyl)polyangioic acid] | >32 | >32
CC[C@H]1O[C@@H](/C(C)=C/[C@H](C)/C=C/[C@H]2[C@@H](C)[C@@H]2/C=C/[C@@H]2O[C@H](CC(=O)O)C[C@H](N(CC3CC3)CC3CC3)[C@H]2O)CC=C1C [I-e, (5S,6R)-5-[di(cyclopropylmethyl)amino]-6-hydroxypolyangioic acid] | 3.33 | 4.0
CC[C@H]1O[C@@H](/C(C)=C/[C@H](C)/C=C/[C@H]2[C@@H](C)[C@@H]2/C=C/[C@@H]2O[C@H](CC(=O)O)C[C@H](N(C)Cc3ccc4ccccc4c3)[C@H]2O)CC=C1C [I-f, (5S,6R)-5-(N-(2-naphthyl)methyl-methylamino)-6-hydroxypolyangioic acid] | 4.67 | 8.0
CC[C@H]1O[C@@H](/C(C)=C/[C@H](C)/C=C/[C@H]2[C@@H](C)[C@@H]2/C=C/[C@@H]2O[C@H](CC(=O)O)C[C@H](NC(=O)C(F)(F)F)[C@H]2O)CC=C1C [I-fff, (5S,6R)-5-trifluroacetamido-6-hydroxypolyangioic acid] | 2 | 3
CC[C@H]1O[C@@H](/C(C)=C/[C@H](C)/C=C/[C@H]2[C@@H](C)[C@@H]2/C=C/[C@@H]2O[C@H](CC(=O)O)C[C@H](N(Cc3c[nH]cn3)Cc3c[nH]cn3)[C@H]2O)CC=C1C [I-g, (5S,6R)-5-{di [(4-imidazolyl)methyl]amino}-6-hydroxypolyangioic acid] | 24.0 | 22.67
CC[C@H]1O[C@@H](/C(C)=C/[C@H](C)/C=C/[C@H]2[C@@H](C)[C@@H]2/C=C/[C@@H]2O[C@H](CC(=O)OC)C[C@H](N(C)C(=O)OCC(C)C)[C@H]2O)CC=C1C [I-gg] | >32 | >32
CC[C@H]1O[C@@H](/C(C)=C/[C@H](C)/C=C/[C@H]2[C@@H](C)[C@@H]2/C=C/[C@@H]2O[C@H](CC(=O)O)C[C@H](NCC(F)F)[C@H]2O)CC=C1C [I-ggg, (5S,6R)-5-(2,2-difluoroethyl)amino-6-hydroxypolyangioic acid] | 8 | 4
CC[C@H]1O[C@@H](/C(C)=C/[C@H](C)/C=C/[C@H]2[C@@H](C)[C@@H]2/C=C/[C@@H]2O[C@H](CC(=O)O)C[C@H](NCc3ccc(OC)c(OC)c3)[C@H]2O)CC=C1C [I-hhh, (5S,6R)-5-(3,4-dimethoxybenzyl)amino-6-hydroxypolyangioic acid] | >32 | >32
CC[C@H]1O[C@@H](/C(C)=C/[C@H](C)/C=C/[C@H]2[C@@H](C)[C@@H]2/C=C/[C@@H]2O[C@H](CCO)C[C@H](NCC(F)(F)F)[C@H]2O)CC=C1C [I-iii, (5S,6R)-5-(2,2,2-trifluroethyl)aminopolyangi-1,6-diol] | 16 | 16
CC[C@H]1O[C@@H](/C(C)=C/[C@H](C)/C=C/[C@H]2[C@@H](C)[C@@H]2/C=C/[C@@H]2O[C@H](CC(=O)O)C[C@H](NC(C)=O)[C@H]2O)CC=C1C [I-j, (5S,6R)-5-acetamido-6-hydroxypolyangioic acid] | >32 | 32
CC[C@H]1O[C@@H](/C(C)=C/[C@H](C)/C=C/[C@H]2[C@@H](C)[C@@H]2/C=C/[C@@H]2O[C@H](CCO)C[C@H](NCC(F)F)[C@H]2O)CC=C1C [I-jjj, (5S,6R)-5-(2,2-difluroethyl)aminopolyangi-1,6-diol] | 8 | 8
CC[C@H]1O[C@@H](/C(C)=C/[C@H](C)/C=C/[C@H]2[C@@H](C)[C@@H]2/C=C/[C@@H]2O[C@H](CC(=O)OC)C[C@H](N(C)C(C)=O)[C@H]2O)CC=C1C [I-k, methyl (5S,6R)-5-[N-methyl(acetamido)]-6-hydroxypolyangioate] | >32 | >32
CCC(=O)N(C)[C@H]1C[C@@H](CC(=O)O)O[C@@H](/C=C/[C@H]2[C@H](C)[C@@H]2/C=C/[C@@H](C)/C=C(\C)[C@H]2CC=C(C)[C@@H](CC)O2)[C@@H]1O [I-m, (5S,6R)-5-[N-methyl(propionamido)]-6-hydroxypolyangioic acid] | >32 | >32
CC[C@H]1O[C@@H](/C(C)=C/[C@H](C)/C=C/[C@H]2[C@@H](C)[C@@H]2/C=C/[C@@H]2O[C@H](CC(=O)O)C[C@H](N(C)C(=O)OC)[C@H]2O)CC=C1C [I-o] | 32 | 16
CC[C@H]1O[C@@H](/C(C)=C/[C@H](C)/C=C/[C@H]2[C@@H](C)[C@@H]2/C=C/[C@@H]2O[C@H](CC(=O)O)C[C@H](N(C)C(=O)NCc3ccccc3)[C@H]2O)CC=C1C [I-p, (5S,6R)-5-(3-benzyl-1-methylureido)-6-hydroxypolyangioic acid] | 32 | 32
CC[C@H]1O[C@@H](/C(C)=C/[C@H](C)/C=C/[C@H]2[C@@H](C)[C@@H]2/C=C/[C@@H]2O[C@H](CC(=O)NCCN(C)C)C[C@H](N(C)C)[C@H]2O)CC=C1C [I-qq, (5S,6R)-5-dimethylamino-6-hydroxy-N-[(2-dimethylamino)ethyl]polyangiamide] | >32 | 32
CC[C@H]1O[C@@H](/C(C)=C/[C@H](C)/C=C/[C@H]2[C@@H](C)[C@@H]2/C=C/[C@@H]2O[C@H](CC(=O)O)C[C@H](N(C)C(=O)OCC(C)C)[C@H]2O)CC=C1C [I-r, (5S,6R)-5-[N-methyl(isobutoxycarbonylamino)]-6-hydroxypolyangioic acid] | >32 | >32
CC[C@H]1O[C@@H](/C(C)=C/[C@H](C)/C=C/[C@H]2[C@@H](C)[C@@H]2/C=C/[C@@H]2O[C@H](CC(=O)NCCO)C[C@H](N(C)C)[C@H]2O)CC=C1C [I-rr, (5S,6R)-5-dimethylamino-6-hydroxy-N-(2-hydroxyethyl)polyangiamide] | 2 | 4
CC[C@H]1O[C@@H](/C(C)=C/[C@H](C)/C=C/[C@H]2[C@@H](C)[C@@H]2/C=C/[C@@H]2O[C@H](CC(=O)O)C[C@H](NC(=O)NCc3ccccc3)[C@H]2O)CC=C1C [I-s, (5S,6R)-5-(3-benzylureido)-6-hydroxypolyangioic acid] | 32 | 16
CC[C@H]1O[C@@H](/C(C)=C/[C@H](C)/C=C/[C@H]2[C@@H](C)[C@@H]2/C=C/[C@@H]2O[C@H](CC(=O)NCC(=O)OC)C[C@H](N(C)C)[C@H]2O)CC=C1C [I-ss, (5S,6R)-5-dimethylamino-6-hydroxy-N-(methoxycarbonylmethyl)polyangiamide] | 8 | 4
CC[C@H]1O[C@@H](/C(C)=C/[C@H](C)/C=C/[C@H]2[C@@H](C)[C@@H]2/C=C/[C@@H]2O[C@H](CC(=O)N(C)OC)C[C@H](N(C)C)[C@H]2O)CC=C1C [I-tt, (5S,6R)-5-dimethylamino-6-hydroxy-N-methoxy-N-methylpolyangiamide] | 4 | 8
CC[C@H]1O[C@@H](/C(C)=C/[C@H](C)/C=C/[C@H]2[C@@H](C)[C@@H]2/C=C/[C@@H]2O[C@H](CC(=O)O)C[C@H](N(C)Cc3nccs3)[C@H]2O)CC=C1C [I-x, (5S,6R)-5-(N-(2-thiazolyl)methyl-methylamino)-6-hydroxypolyangioic acid] | 4 | 2
CC[C@H]1O[C@@H](/C(C)=C/[C@H](C)/C=C/[C@H]2[C@@H](C)[C@@H]2/C=C/[C@@H]2O[C@H](CC=NO)C[C@H](NC)[C@H]2O)CC=C1C [I-zz, (5S,6R)-5-methylamino-6-hydroxypolyangial oxime] | 8 | 12
